Data published in paper PMC4770715, “LIM kinase inhibitors disrupt mitotic microtubule organization and impair tumor cell proliferation” (Oncotarget, 2015).

Tests used:
Experiment in all cases: biochemical
Design in all cases: KINOMEscan active-site competition binding, percent of control (100 = no competition)
Conditions in all cases: competition binding, percent control
[1] = biological target: T1, ABL1(F317I)-nonphosphorylated (Homo sapiens, UniProt P00519, F317I)
T1 construct: nonphosphorylated

[2] = biological target: T2, ABL1(Y253F)-phosphorylated (Homo sapiens, UniProt P00519, Y253F)
T2 construct: phosphorylated

ABL1-phosphorylated = biological target: T3, ABL1-phosphorylated (Homo sapiens, UniProt P00519)
T3 construct: phosphorylated

AMPK-alpha1 = biological target: T4, AMPK-alpha1 (Homo sapiens, UniProt Q13131)
T4 construct: gene PRKAA1

EGFR = EGFR (Homo sapiens, UniProt P00533)
EGFR(S752-I759del) = EGFR(S752-I759del) (Homo sapiens, UniProt P00533, DEL752-759)
Sequence of EGFR(S752-I759del) (P00533 with tags, fused parts or gaps DEL752-759): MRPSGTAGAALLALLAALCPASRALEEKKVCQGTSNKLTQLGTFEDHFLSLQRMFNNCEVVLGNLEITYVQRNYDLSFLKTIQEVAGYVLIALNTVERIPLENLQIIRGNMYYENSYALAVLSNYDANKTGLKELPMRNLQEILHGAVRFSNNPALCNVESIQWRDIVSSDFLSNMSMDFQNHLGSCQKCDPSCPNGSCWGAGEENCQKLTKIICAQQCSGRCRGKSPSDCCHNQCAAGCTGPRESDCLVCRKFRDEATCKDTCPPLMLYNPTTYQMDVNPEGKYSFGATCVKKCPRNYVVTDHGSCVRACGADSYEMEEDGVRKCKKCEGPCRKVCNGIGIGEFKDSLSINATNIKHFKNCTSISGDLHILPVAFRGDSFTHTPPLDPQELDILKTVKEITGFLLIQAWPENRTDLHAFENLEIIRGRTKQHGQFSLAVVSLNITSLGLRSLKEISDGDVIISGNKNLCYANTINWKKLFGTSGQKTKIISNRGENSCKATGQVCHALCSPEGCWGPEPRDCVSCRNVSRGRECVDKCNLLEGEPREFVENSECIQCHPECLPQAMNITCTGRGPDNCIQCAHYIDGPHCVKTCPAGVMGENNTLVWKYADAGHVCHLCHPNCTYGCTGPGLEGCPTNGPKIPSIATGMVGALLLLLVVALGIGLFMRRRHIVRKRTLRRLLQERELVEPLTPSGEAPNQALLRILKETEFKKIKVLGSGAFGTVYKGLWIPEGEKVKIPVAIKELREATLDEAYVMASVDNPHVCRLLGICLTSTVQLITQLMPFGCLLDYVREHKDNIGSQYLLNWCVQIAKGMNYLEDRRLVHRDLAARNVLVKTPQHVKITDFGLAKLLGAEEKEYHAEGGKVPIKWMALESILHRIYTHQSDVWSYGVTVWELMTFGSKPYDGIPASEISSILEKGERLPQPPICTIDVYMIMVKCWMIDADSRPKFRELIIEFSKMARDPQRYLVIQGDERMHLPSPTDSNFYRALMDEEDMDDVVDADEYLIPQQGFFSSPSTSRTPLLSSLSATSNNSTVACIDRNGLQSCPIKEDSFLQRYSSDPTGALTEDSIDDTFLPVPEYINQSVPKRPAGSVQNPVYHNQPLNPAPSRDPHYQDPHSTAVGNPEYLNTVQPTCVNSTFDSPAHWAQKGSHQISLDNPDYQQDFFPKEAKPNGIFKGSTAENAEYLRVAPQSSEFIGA

EPHA6 = EPHA6 (Homo sapiens, UniProt Q9UF33)
Sequence of EPHA6 (Q9UF33 whole entry): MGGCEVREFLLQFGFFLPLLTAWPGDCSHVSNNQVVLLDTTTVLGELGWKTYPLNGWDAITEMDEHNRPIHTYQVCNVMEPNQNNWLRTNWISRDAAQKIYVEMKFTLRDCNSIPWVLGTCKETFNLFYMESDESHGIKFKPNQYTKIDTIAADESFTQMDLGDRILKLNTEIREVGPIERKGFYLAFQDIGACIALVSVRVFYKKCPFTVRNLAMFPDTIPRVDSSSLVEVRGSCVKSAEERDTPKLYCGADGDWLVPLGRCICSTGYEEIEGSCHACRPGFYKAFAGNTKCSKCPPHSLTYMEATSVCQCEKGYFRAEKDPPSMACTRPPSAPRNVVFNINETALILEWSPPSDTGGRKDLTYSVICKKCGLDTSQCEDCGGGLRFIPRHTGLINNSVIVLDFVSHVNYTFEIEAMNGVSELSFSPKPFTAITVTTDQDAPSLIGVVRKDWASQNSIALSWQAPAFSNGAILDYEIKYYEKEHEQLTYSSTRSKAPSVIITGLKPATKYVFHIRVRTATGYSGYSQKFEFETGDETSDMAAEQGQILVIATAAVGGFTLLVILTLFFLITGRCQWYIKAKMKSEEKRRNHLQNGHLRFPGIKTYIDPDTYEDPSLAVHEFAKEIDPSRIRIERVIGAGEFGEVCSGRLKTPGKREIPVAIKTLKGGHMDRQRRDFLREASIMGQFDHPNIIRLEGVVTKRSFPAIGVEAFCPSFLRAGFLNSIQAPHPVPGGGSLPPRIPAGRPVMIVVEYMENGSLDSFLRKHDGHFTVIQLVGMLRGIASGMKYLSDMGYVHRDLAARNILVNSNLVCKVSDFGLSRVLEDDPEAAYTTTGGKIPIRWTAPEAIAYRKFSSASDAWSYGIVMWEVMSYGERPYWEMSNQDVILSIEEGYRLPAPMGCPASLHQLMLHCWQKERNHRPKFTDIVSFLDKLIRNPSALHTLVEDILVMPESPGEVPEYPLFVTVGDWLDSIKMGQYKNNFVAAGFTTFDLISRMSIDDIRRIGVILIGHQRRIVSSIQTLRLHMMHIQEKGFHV

ERK4 = biological target: T5, ERK4 (Homo sapiens, UniProt P31152)
T5 construct: gene MAPK4
T5 sequence (P31152 whole entry): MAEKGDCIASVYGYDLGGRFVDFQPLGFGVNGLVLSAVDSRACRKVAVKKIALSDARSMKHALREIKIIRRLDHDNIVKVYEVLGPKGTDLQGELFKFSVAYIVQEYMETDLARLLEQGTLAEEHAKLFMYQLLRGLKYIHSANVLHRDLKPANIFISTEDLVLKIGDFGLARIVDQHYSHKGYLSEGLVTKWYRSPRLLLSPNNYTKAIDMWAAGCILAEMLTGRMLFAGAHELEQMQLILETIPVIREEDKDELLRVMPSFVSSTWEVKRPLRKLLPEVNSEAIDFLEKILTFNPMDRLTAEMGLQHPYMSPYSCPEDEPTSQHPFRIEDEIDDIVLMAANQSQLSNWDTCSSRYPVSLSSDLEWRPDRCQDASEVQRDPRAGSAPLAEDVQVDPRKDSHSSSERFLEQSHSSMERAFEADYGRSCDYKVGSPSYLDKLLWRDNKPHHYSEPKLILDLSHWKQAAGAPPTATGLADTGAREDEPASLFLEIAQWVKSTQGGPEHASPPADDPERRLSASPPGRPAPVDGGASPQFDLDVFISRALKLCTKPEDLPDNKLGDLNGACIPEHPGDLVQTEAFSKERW

ERN1 = ERN1 (Homo sapiens, UniProt O75460)
FLT3(D835Y) = FLT3(D835Y) (Homo sapiens, UniProt P36888, D835Y)
HIPK2 = HIPK2 (Homo sapiens, UniProt Q9H2X6)
Sequence of HIPK2 (Q9H2X6 whole entry): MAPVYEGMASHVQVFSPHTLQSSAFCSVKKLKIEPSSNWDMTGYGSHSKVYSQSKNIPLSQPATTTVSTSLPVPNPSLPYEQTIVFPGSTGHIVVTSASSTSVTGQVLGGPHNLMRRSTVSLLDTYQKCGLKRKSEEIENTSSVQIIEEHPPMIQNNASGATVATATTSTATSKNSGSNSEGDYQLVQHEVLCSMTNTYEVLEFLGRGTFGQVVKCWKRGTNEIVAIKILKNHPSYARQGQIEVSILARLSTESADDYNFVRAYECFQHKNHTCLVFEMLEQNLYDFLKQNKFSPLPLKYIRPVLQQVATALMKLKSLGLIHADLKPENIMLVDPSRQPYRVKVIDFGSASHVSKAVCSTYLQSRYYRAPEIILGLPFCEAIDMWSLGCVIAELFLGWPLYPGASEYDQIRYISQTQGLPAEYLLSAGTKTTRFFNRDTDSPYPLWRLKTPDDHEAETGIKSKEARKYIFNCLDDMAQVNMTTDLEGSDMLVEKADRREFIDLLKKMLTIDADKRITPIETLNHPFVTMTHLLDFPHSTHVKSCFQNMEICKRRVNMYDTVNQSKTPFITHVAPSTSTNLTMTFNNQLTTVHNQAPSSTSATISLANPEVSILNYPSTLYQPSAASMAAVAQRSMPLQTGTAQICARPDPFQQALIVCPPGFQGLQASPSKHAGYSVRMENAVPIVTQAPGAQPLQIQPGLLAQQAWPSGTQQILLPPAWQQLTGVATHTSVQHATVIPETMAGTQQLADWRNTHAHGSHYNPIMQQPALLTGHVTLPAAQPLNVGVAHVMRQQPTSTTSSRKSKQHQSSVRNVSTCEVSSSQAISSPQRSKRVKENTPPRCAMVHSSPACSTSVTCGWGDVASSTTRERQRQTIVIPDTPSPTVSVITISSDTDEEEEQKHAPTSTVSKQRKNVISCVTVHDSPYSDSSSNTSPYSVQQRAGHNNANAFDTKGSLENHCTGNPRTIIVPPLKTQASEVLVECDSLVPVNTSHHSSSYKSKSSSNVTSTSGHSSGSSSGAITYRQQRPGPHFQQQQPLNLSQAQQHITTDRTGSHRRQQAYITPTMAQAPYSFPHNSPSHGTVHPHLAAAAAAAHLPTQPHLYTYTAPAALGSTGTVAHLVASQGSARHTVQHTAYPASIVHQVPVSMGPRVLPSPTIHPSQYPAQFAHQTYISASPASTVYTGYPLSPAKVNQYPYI

MET = MET (Homo sapiens, UniProt P08581)
MYO3B = MYO3B (Homo sapiens, UniProt Q8WXR4)
NEK7 = NEK7 (Homo sapiens, UniProt Q8TDX7)
Sequence of NEK7 (Q8TDX7 whole entry): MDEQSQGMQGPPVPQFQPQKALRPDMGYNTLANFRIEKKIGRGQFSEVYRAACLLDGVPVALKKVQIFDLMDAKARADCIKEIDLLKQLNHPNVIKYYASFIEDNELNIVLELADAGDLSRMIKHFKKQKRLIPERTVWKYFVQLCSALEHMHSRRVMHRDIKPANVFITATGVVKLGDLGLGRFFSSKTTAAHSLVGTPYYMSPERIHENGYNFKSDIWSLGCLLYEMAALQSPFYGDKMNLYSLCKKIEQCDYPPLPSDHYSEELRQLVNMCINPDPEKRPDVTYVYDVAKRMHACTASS

PAK6 = PAK6 (Homo sapiens, UniProt Q9NQU5)
Sequence of PAK6 (Q9NQU5 whole entry): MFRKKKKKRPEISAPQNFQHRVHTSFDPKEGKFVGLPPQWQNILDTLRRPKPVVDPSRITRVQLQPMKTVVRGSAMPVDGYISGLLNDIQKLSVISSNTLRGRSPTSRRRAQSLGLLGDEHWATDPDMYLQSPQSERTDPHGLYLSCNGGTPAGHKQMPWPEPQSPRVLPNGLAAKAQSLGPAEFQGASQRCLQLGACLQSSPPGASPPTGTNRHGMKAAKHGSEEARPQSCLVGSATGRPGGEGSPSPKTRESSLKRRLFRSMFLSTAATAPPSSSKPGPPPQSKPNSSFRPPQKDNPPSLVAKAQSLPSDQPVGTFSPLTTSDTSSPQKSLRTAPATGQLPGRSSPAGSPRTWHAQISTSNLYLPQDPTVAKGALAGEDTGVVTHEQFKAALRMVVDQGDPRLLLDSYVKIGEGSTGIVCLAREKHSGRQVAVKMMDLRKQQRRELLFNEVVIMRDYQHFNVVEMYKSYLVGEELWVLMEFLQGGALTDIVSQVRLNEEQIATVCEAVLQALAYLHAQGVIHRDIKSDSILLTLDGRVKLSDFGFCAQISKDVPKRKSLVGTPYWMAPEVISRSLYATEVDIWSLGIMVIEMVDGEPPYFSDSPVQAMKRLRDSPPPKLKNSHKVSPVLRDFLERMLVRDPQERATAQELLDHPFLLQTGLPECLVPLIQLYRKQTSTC

PFCDPK1(P.falciparum) = biological target: T6, PFCDPK1(P.falciparum) (Plasmodium falciparum, UniProt P62344)
T6 construct: gene CDPK1

PIK3CA(I800L) = PIK3CA(I800L) (Homo sapiens, UniProt P42336, I800L)
PIM2 = PIM2 (Homo sapiens, UniProt Q9P1W9)
PIP5K2B = biological target: T7, PIP5K2B (Homo sapiens, UniProt P78356)
T7 construct: gene PIP4K2B

PKAC-beta = biological target: T8, PKAC-beta (Homo sapiens, UniProt P22694)
T8 construct: gene PRKACB

RIPK5 = biological target: T9, RIPK5 (Homo sapiens, UniProt Q6XUX3)
T9 construct: gene DSTYK

ULK1 = ULK1 (Homo sapiens, UniProt O75385)

With COc1ccc(-c2cnccc2-c2cnc(NC(=O)C(C)C)s2)c(C(F)(F)F)c1 [CRT0105446, N-{5-[3-(4-Methoxy-2-trifluoromethyl-phenyl)-pyridin-4-yl]-hiazol-2-yl}-isobutyramide] the remaining binding at 10 µM [1] was 100%, the remaining binding at 10 µM [2] was 89% and the remaining binding at 10 µM (ABL1-phosphorylated) was 77%. It also gave a remaining binding at 10 µM (AMPK-alpha1) of 1.1%, a remaining binding at 10 µM (EGFR) of 100% and a remaining binding at 10 µM (EGFR(S752-I759del)) of 84%. For the same molecule, the remaining binding at 10 µM (EPHA6) was 86%, the remaining binding at 10 µM (ERK4) was 100% and the remaining binding at 10 µM (ERN1) was 87%. The remaining binding at 10 µM (FLT3(D835Y)) was 20%, the remaining binding at 10 µM (HIPK2) was 92% and the remaining binding at 10 µM (MET) was 80%. For the same molecule, the remaining binding at 10 µM (MYO3B) was 100%, the remaining binding at 10 µM (NEK7) was 100% and the remaining binding at 10 µM (PAK6) was 93%. The remaining binding at 10 µM (PFCDPK1(P.falciparum)) was 30%, the remaining binding at 10 µM (PIK3CA(I800L)) was 100% and the remaining binding at 10 µM (PIM2) was 100%. The remaining binding at 10 µM (PIP5K2B) was 100%, the remaining binding at 10 µM (PKAC-beta) was 100% and the remaining binding at 10 µM (RIPK5) was 86%. It also gave a remaining binding at 10 µM (ULK1) of 100%.
For Cc1ccc(-c2cnccc2-c2cnc(Nc3ccc(O)cc3)s2)c(Cl)c1 [CRT0105950, 4-{5-[3-(2-Chloro-4-methyl-phenyl)-pyridin-4-yl]-thiazol-2-ylamino}-phenol], the remaining binding at 10 µM [1] was 93%, the remaining binding at 10 µM [2] was 74% and the remaining binding at 10 µM (ABL1-phosphorylated) was 70%. The remaining binding at 10 µM (AMPK-alpha1) was 2.1%, the remaining binding at 10 µM (EGFR) was 53% and the remaining binding at 10 µM (EGFR(S752-I759del)) was 69%. For the same molecule, the remaining binding at 10 µM (EPHA6) was 30%, the remaining binding at 10 µM (ERK4) was 86% and the remaining binding at 10 µM (ERN1) was 68%. It also gave a remaining binding at 10 µM (FLT3(D835Y)) of 1.2%, a remaining binding at 10 µM (HIPK2) of 55% and a remaining binding at 10 µM (MET) of 16%. It also gave a remaining binding at 10 µM (MYO3B) of 90%, a remaining binding at 10 µM (NEK7) of 100% and a remaining binding at 10 µM (PAK6) of 38%. The remaining binding at 10 µM (PFCDPK1(P.falciparum)) was 17%, the remaining binding at 10 µM (PIK3CA(I800L)) was 100% and the remaining binding at 10 µM (PIM2) was 100%. For the same molecule, the remaining binding at 10 µM (PIP5K2B) was 44%, the remaining binding at 10 µM (PKAC-beta) was 44% and the remaining binding at 10 µM (RIPK5) was 45%. For the same molecule, the remaining binding at 10 µM (ULK1) was 38%.
